The text below walks through data of US6589980B2, “Substituted 10,11-benzo[b]fluoren-10-ones as estrogenic agents” (Wyeth, priority 2001, dated 2003).

For data set [1], the target named is T1, human ERβ (Homo sapiens, UniProt Q92731).
T1 construct: made in house; host or cells: E. coli (crude lysate)
Put plainly: Competition with [3H]-17β-estradiol for binding to ERβ ligand binding domain. The following applies: crude E. coli lysate expressing ER ligand binding domains (D,E,&F); 2 nM [3H]-17β-estradiol; 5-15 hours at room temperature. On the procedure: (§1) This test procedure provides the methodology for one to determine whether a particular compound binds to the estrogen receptor (and is therefore “estrogenic”) and whether there is selectivity for ERα or ERβ. […] The procedure used is briefly described below. A crude lysate of E. coli expressing the estrogen receptor ligand binding domains (D,E, & F) of human ERα or ERβ was prepared. Both receptors and compounds were diluted in 1×Dulbecco's PBS (DPBS) supplemented with 1 mM EDTA. […] After between 5 and 15 hours at room temperature, the plates were washed with DPBS/1 mM EDTA and bound radioactivity determined by liquid scintillation counting.

In data set [2] the target is T2, human ERα (Homo sapiens, UniProt P03372).
T2 construct: made in house; host or cells: E. coli (crude lysate)
T2 sequence (P03372 311-547 limits assumed): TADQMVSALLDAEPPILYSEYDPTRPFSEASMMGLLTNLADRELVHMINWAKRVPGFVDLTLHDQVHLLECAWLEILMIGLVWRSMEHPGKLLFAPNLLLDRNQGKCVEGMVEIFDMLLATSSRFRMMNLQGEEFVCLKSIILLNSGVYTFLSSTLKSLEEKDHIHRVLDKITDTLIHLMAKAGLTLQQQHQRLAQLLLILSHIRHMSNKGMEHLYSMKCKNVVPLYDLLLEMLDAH
Nature of the data set: Competition with [3H]-17β-estradiol for binding to ERα ligand binding domain. To be noted: crude E. coli lysate expressing ER ligand binding domains (D,E,&F); 2 nM [3H]-17β-estradiol; 5-15 hours at room temperature. Here is the method: as §1

The term pIC50 denotes −log10 of the IC50, conventionally taken in molar units. Higher therefore signals a low IC50. Broadly, the melting point is the temperature, or range, at which the solid turns liquid.

pIC50: −log10 of the molar value.

T1 sequence (Q92731 264-498 limits assumed): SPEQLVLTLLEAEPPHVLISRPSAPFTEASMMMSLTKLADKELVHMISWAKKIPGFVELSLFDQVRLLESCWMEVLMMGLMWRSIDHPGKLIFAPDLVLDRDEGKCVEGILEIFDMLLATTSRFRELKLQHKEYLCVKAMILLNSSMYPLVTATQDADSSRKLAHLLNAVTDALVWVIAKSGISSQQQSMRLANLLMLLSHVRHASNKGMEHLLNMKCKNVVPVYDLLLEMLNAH

`O=c1c2c(O)cc(O)cc2oc2oc3cc(O)ccc3c12` [2,6,8-Trihydroxy-10,11-dioxa-benzo[b]fluoren-5-one] showed a pIC50 in data set [1] of 8.70.

Compound `O=c1c2ccc(O)cc2oc2oc3cc(O)ccc3c12` [2,8-Dihydroxy-10,11-dioxa-benzo[b]fluoren-5-one] yielded a melting point greater than 300 °C. In data set [1], this compound showed a pIC50 of 7.55. The same compound showed a negative-log IC50 (pIC50) in data set [2] of 6.32.

In data set [2], `COc1cc(O)c2c(=O)c3c(oc2c1)oc1cc(O)ccc13` [2.6-Dihvdroxy-8-methoxy-10,11-dioxa-benzo[b]fluoren-5-one] showed a pIC50 of 5.56.
